# In patent US12404262B2 (priority 2021, dated 2025):
# Conditions: 1.0% DMSO, 24-hour incubation at ambient temperature, maximum theoretical 100 μM; for pH 2 solubility: 0.1N HCl, first value of the cell; for pH 7 solubility: 1×PBS buffer (pH 7.4), second value of the cell
pH 2 solubility,pH 7 solubility,Compound
6 μM,16 μM,"CC(C)(CNC(=O)N(c1nn(CC(F)(F)F)c2c(-c3ccc(C#CC(C)(C)S(C)(=O)=O)nc3[C@H](Cc3cc(F)cc(F)c3)NC(=O)Cn3nc(C(F)(F)F)c4c3C(F)(F)[C@@H]3C[C@H]43)ccc(Cl)c12)S(C)(=O)=O)OP(=O)(O)O [Compound 33, 1-(3-(4-chloro-7-(2-((S)-1-(2-((3bS,4aR)-5,5-difluoro-3-(trifluoromethyl)-3b,4,4a,5-tetrahydro-1H-cyclopropa[3,4]cyclopenta[1,2-c]pyrazol-1-yl)acetamido)-2-(3,5-difluorophenyl)ethyl)-6-(3-methyl-3-(methylsulfonyl)but-1-yn-1-yl)pyridin-3-yl)-1-(2,2,2-trifluoroethyl)-1H-indazol-3-yl)-3-(methylsulfonyl)ureido)-2-methylpropan-2-yl dihydrogen phosphate]"
1 μM,4 μM,"C[C@H](O)CNC(=O)N(c1nn(CC(F)(F)F)c2c(-c3ccc(C#CC(C)(C)S(C)(=O)=O)nc3[C@H](Cc3cc(F)cc(F)c3)NC(=O)Cn3nc(C(F)(F)F)c4c3C(F)(F)[C@@H]3C[C@H]43)ccc(Cl)c12)S(C)(=O)=O [Compound 34, N—((S)-1-(3-(4-chloro-3-(N—(((S)-2-hydroxypropyl)carbamoyl)methylsulfonamido)-1-(2,2,2-trifluoroethyl)-1H-indazol-7-yl)-6-(3-methyl-3-(methylsulfonyl)but-1-yn-1-yl)pyridin-2-yl)-2-(3,5-difluorophenyl)ethyl)-2-((3bS,4aR)-5,5-difluoro-3-(trifluoromethyl)-3b,4,4a,5-tetrahydro-1H-cyclopropa[3,4]cyclopenta[1,2-c]pyrazol-1-yl)acetamide]"
1 μM,14 μM,"C[C@@H](CNC(=O)N(c1nn(CC(F)(F)F)c2c(-c3ccc(C#CC(C)(C)S(C)(=O)=O)nc3[C@H](Cc3cc(F)cc(F)c3)NC(=O)Cn3nc(C(F)(F)F)c4c3C(F)(F)[C@@H]3C[C@H]43)ccc(Cl)c12)S(C)(=O)=O)OP(=O)(O)O [Compound 35, (S)-1-(3-(4-chloro-7-(2-((S)-1-(2-((3bS,4aR)-5,5-difluoro-3-(trifluoromethyl)-3b,4,4a,5-tetrahydro-1H-cyclopropa[3,4]cyclopenta[1,2-c]pyrazol-1-yl)acetamido)-2-(3,5-difluorophenyl)ethyl)-6-(3-methyl-3-(methylsulfonyl)but-1-yn-1-yl)pyridin-3-yl)-1-(2,2,2-trifluoroethyl)-1H-indazol-3-yl)-3-(methylsulfonyl)ureido)propan-2-yl dihydrogen phosphate]"
3 μM,18 μM,"CC(C)(C#Cc1ccc(-c2ccc(Cl)c3c(N(C(=O)NC(COC(=O)C(=O)O)COC(=O)C(=O)O)S(C)(=O)=O)nn(CC(F)(F)F)c23)c([C@H](Cc2cc(F)cc(F)c2)NC(=O)Cn2nc(C(F)(F)F)c3c2C(F)(F)[C@@H]2C[C@H]32)n1)S(C)(=O)=O [Compound 37, 2,2′-((2-(3-(4-chloro-7-(2-((S)-1-(2-((3bS,4aR)-5,5-difluoro-3-(trifluoromethyl)-3b,4,4a,5-tetrahydro-1H-cyclopropa[3,4]cyclopenta[1,2-c]pyrazol-1-yl)acetamido)-2-(3,5-difluorophenyl)ethyl)-6-(3-methyl-3-(methylsulfonyl)but-1-yn-1-yl)pyridin-3-yl)-1-(2,2,2-trifluoroethyl)-1H-indazol-3-yl)-3-(methylsulfonyl)ureido)propane-1,3-diyl)bis(oxy))bis(2-oxoacetic acid)]"
1 μM,2 μM,"CC(C)(C#Cc1ccc(-c2ccc(Cl)c3c(N(C(=O)NCCO)S(C)(=O)=O)nn(CC(F)(F)F)c23)c([C@H](Cc2cc(F)cc(F)c2)NC(=O)Cn2nc(C(F)(F)F)c3c2C(F)(F)[C@@H]2C[C@H]32)n1)S(C)(=O)=O [Compound 40, N—((S)-1-(3-(4-chloro-3-(N-((2-hydroxyethyl)carbamoyl)methylsulfonamido)-1-(2,2,2-trifluoroethyl)-1H-indazol-7-yl)-6-(3-methyl-3-(methylsulfonyl)but-1-yn-1-yl)pyridin-2-yl)-2-(3,5-difluorophenyl)ethyl)-2-((3bS,4aR)-5,5-difluoro-3-(trifluoromethyl)-3b,4,4a,5-tetrahydro-1H-cyclopropa[3,4]cyclopenta[1,2-c]pyrazol-1-yl)acetamide]"
3 μM,17 μM,"CC(C)(C#Cc1ccc(-c2ccc(Cl)c3c(N(C(=O)NCCOP(=O)(O)O)S(C)(=O)=O)nn(CC(F)(F)F)c23)c([C@H](Cc2cc(F)cc(F)c2)NC(=O)Cn2nc(C(F)(F)F)c3c2C(F)(F)[C@@H]2C[C@H]32)n1)S(C)(=O)=O [Compound 41, 2-(3-(4-chloro-7-(2-((S)-1-(2-((3bS,4aR)-5,5-difluoro-3-(trifluoromethyl)-3b,4,4a,5-tetrahydro-1H-cyclopropa[3,4]cyclopenta[1,2-c]pyrazol-1-yl)acetamido)-2-(3,5-difluorophenyl)ethyl)-6-(3-methyl-3-(methylsulfonyl)but-1-yn-1-yl)pyridin-3-yl)-1-(2,2,2-trifluoroethyl)-1H-indazol-3-yl)-3-(methylsulfonyl)ureido)ethyl dihydrogen phosphate]"
62 μM,5 μM,"CC(C)(C#Cc1ccc(-c2ccc(Cl)c3c(N(C(=O)NCCN4CCOCC4)S(C)(=O)=O)nn(CC(F)(F)F)c23)c([C@H](Cc2cc(F)cc(F)c2)NC(=O)Cn2nc(C(F)(F)F)c3c2C(F)(F)[C@@H]2C[C@H]32)n1)S(C)(=O)=O [Compound 42, N—((S)-1-(3-(4-chloro-3-(N-((2-morpholinoethyl)carbamoyl)methylsulfonamido)-1-(2,2,2-trifluoroethyl)-1H-indazol-7-yl)-6-(3-methyl-3-(methylsulfonyl)but-1-yn-1-yl)pyridin-2-yl)-2-(3,5-difluorophenyl)ethyl)-2-((3bS,4aR)-5,5-difluoro-3-(trifluoromethyl)-3b,4,4a,5-tetrahydro-1H-cyclopropa[3,4]cyclopenta[1,2-c]pyrazol-1-yl)acetamide]"

# Second part, the molecule before the results:
Compound,pH 2 solubility,pH 7 solubility
"CC(C)(C)C(=O)OCN(c1nn(CC(F)(F)F)c2c(-c3ccc(C#CC(C)(C)S(C)(=O)=O)nc3[C@H](Cc3cc(F)cc(F)c3)NC(=O)Cn3nc(C(F)(F)F)c4c3C(F)(F)[C@@H]3C[C@H]43)ccc(Cl)c12)S(C)(=O)=O [Compound 30, (N-(4-chloro-7-(2-((S)-1-(2-((3bS,4aR)-5,5-difluoro-3-(trifluoromethyl)-3b,4,4a,5-tetrahydro-1H-cyclopropa[3,4]cyclopenta[1,2-c]pyrazol-1-yl)acetamido)-2-(3,5-difluorophenyl)ethyl)-6-(3-methyl-3-(methylsulfonyl)but-1-yn-1-yl)pyridin-3-yl)-1-(2,2,2-trifluoroethyl)-1H-indazol-3-yl)methylsulfonamido)methyl pivalate]",1/1 μM,1/1 μM
"CC(C)(O)CNC(=O)N(c1nn(CC(F)(F)F)c2c(-c3ccc(C#CC(C)(C)S(C)(=O)=O)nc3[C@H](Cc3cc(F)cc(F)c3)NC(=O)Cn3nc(C(F)(F)F)c4c3C(F)(F)[C@@H]3C[C@H]43)ccc(Cl)c12)S(C)(=O)=O [Compound 32, N—((S)-1-(3-(4-chloro-3-(N-((2-hydroxy-2-methylpropyl)carbamoyl)methylsulfonamido)-1-(2,2,2-trifluoroethyl)-1H-indazol-7-yl)-6-(3-methyl-3-(methylsulfonyl)but-1-yn-1-yl)pyridin-2-yl)-2-(3,5-difluorophenyl)ethyl)-2-((3bS,4aR)-5,5-difluoro-3-(trifluoromethyl)-3b,4,4a,5-tetrahydro-1H-cyclopropa[3,4]cyclopenta[1,2-c]pyrazol-1-yl)acetamide]",1/1 μM,1/1 μM
"CC(C)(C#Cc1ccc(-c2ccc(Cl)c3c(N(C(=O)NC(CO)CO)S(C)(=O)=O)nn(CC(F)(F)F)c23)c([C@H](Cc2cc(F)cc(F)c2)NC(=O)Cn2nc(C(F)(F)F)c3c2C(F)(F)[C@@H]2C[C@H]32)n1)S(C)(=O)=O [Compound 36, N—((S)-1-(3-(4-chloro-3-(N-((1,3-dihydroxypropan-2-yl)carbamoyl)methylsulfonamido)-1-(2,2,2-trifluoroethyl)-1H-indazol-7-yl)-6-(3-methyl-3-(methylsulfonyl)but-1-yn-1-yl)pyridin-2-yl)-2-(3,5-difluorophenyl)ethyl)-2-((3bS,4aR)-5,5-difluoro-3-(trifluoromethyl)-3b,4,4a,5-tetrahydro-1H-cyclopropa[3,4]cyclopenta[1,2-c]pyrazol-1-yl)acetamide]",1 μM,5 μM
"CC(C)(C#Cc1ccc(-c2ccc(Cl)c3c(N(C(=O)NC(COP(=O)(O)O)COP(=O)(O)O)S(C)(=O)=O)nn(CC(F)(F)F)c23)c([C@H](Cc2cc(F)cc(F)c2)NC(=O)Cn2nc(C(F)(F)F)c3c2C(F)(F)[C@@H]2C[C@H]32)n1)S(C)(=O)=O [Compound 38, 2-(3-(4-chloro-7-(2-((S)-1-(2-((3bS,4aR)-5,5-difluoro-3-(trifluoromethyl)-3b,4,4a,5-tetrahydro-1H-cyclopropa[3,4]cyclopenta[1,2-c]pyrazol-1-yl)acetamido)-2-(3,5-difluorophenyl)ethyl)-6-(3-methyl-3-(methylsulfonyl)but-1-yn-1-yl)pyridin-3-yl)-1-(2,2,2-trifluoroethyl)-1H-indazol-3-yl)-3-(methylsulfonyl)ureido)propane-1,3-diyl bis(dihydrogen phosphate)]",10 μM,16 μM
"CC(C)(CO)NC(=O)N(c1nn(CC(F)(F)F)c2c(-c3ccc(C#CC(C)(C)S(C)(=O)=O)nc3[C@H](Cc3cc(F)cc(F)c3)NC(=O)Cn3nc(C(F)(F)F)c4c3C(F)(F)[C@@H]3C[C@H]43)ccc(Cl)c12)S(C)(=O)=O [Compound 39, N—((S)-1-(3-(4-chloro-3-(N-((1-hydroxy-2-methylpropan-2-yl)carbamoyl)methylsulfonamido)-1-(2,2,2-trifluoroethyl)-1H-indazol-7-yl)-6-(3-methyl-3-(methylsulfonyl)but-1-yn-1-yl)pyridin-2-yl)-2-(3,5-difluorophenyl)ethyl)-2-((3bS,4aR)-5,5-difluoro-3-(trifluoromethyl)-3b,4,4a,5-tetrahydro-1H-cyclopropa[3,4]cyclopenta[1,2-c]pyrazol-1-yl)acetamide]",1 μM,2 μM
